# From US20220363686A1 (AiCuris GmbH & Co. KG, priority 2018, published 2022)
# Experiments:
# [1] = Cell viability assay (AlamarBlue); conditions: human, HepAD38 cells
# [2] = biological target: HBV core protein (C-terminal truncated core protein containing 149 amino acids of the N-terminal assembly domain) (UniProt P03146); test: Biochemical capsid assembly assay (fluorescence quenching); parameters: rows headed: Assembly Activity; other: BODIPY-FL labelled core protein, assembly started with NaCl, read after 6 min; conditions: read-out: Assembly Activity; BODIPY-FL labelled core protein, assembly started with NaCl, read after 6 min
# Protocol: The screening for assembly effector activity was done based on a fluorescence quenching assay published by Zotnick et al. (2007). The C-terminal truncated core protein containing 149 amino acids of the N-terminal assembly domain fused to a unique cysteine residue at position 150 and was expressed in E. coli using the pET expression system (Merck Chemicals, Darmstadt). Purification of core dimer protein was performed using a sequence of size exclusion chromatography steps. In brief, the cell pellet from 1 L BL21 (DE3) Rosetta2 culture expressing the coding sequence of core protein cloned NdeI/XhoI into expression plasmid pET21b was treated for 1 h on ice with a native lysis buffer (Qproteome Bacterial Protein Prep Kit; Qiagen, Hilden). After a centrifugation step the supernatant was precipitated during 2 h stirring on ice with 0.23 g/ml of solid ammonium sulfate. Following further centrifugation the resulting pellet was resolved in buffer A (100 mM Tris, pH 7.5; 100 mM NaCl; 2 mM DTT) and was subsequently loaded onto a buffer A equilibrated CaptoCore 700 column (GE HealthCare, Frankfurt). The column flow through containing the assembled HBV capsid was dialyzed against buffer N (50 mM NaHCO3 pH 9.6; 5 mM DTT) before urea was added to a final concentration of 3M to dissociate the capsid into core dimers for 1.5 h on ice. The protein solution was then loaded onto a IL Sephacryl S300 column. After elution with buffer N core dimer containing fractions were identified by SDS-PAGE and subsequently pooled and dialyzed against 50 mM HEPES pH 7.5; 5 mM DTT. To improve the assembly capacity of the purified core dimers a second round of assembly and disassembly starting with the addition of 5 M NaCl and including the size exclusion chromatography steps described above was performed. From the last chromatography step core dimer containing fractions were pooled and stored in aliquots at concentrations between 1.5 to 2.0 mg/ml at −80° C.
# Immediately before labelling the core protein was reduced by adding freshly prepared DTT in a final concentration of 20 mM. After 40 min incubation on ice storage buffer and DTT was removed using a Sephadex G-25 column (GE HealthCare, Frankfurt) and 50 mM HEPES, pH 7.5. For labelling 1.6 mg/ml core protein was incubated at 4° C. and darkness overnight with BODIPY-FL maleimide (Invitrogen, Karlsruhe) in a final concentration of 1 mM. After labelling the free dye was removed by an additional desalting step using a Sephadex G-25 column. Labelled core dimers were stored in aliquots at 4° C. In the dimeric state the fluorescence signal of the labelled core protein is high and is quenched during the assembly of the core dimers to high molecular capsid structures. The screening assay was performed in black 384 well microtiter plates in a total assay volume of 10 μl using 50 mM HEPES pH 7.5 and 1.0 to 2.0 μM labelled core protein. Each screening compound was added in 8 different concentrations using a 0.5 log-unit serial dilution starting at a final concentration of 100 μM, 31.6 μM or 10 μM, In any case the DMSO concentration over the entire microtiter plate was 0.5%. The assembly reaction was started by the injection of NaCl to a final concentration of […] which induces the assembly process to approximately 25% of the maximal quenched signal. 6 min after starting the reaction the fluorescence signal was measured using a Clariostar plate reader (BMG Labtech, Ortenberg) with an excitation of 477 nm and an emission of 525 nm. As 100% and 0% assembly control HEPES buffer containing 2.5 M and 0 M NaCl was used. Experiments were performed thrice in triplicates. EC50 values were calculated by non-linear regression analysis using the Graph Pad Prism 6 software (GraphPad Software, La Jolla, USA).
# HBV = test: Determination of HBV DNA from the supernatants of HepAD38 cells (anti-HBV activity); assay type: cell-based, hepatitis B virus; conditions: Hepatitis B virus, HePAD38, 144 h, HBV DNA in HepAD38 supernatant, day 6, qPCR; read-out: Cell Activity
# Protocol: The anti-HBV activity was analysed in the stable transfected cell line HepAD38, which has been described to secrete high levels of HBV virion particles (Ladner et al., 1997). In brief, HepAD38 cells were cultured at 37° C. at 5% CO2 and 95% humidity in 200 μl maintenance medium, which was Dulbecco's modified Eagle's medium/Nutrient Mixture F-12 (Gibco, Karlsruhe), 10% fetal bovine serum (PAN Biotech Aidenbach) supplemented with 50 μg/ml penicillin/streptomycin (Gibco, Karlsruhe), 2 mM L-glutamine (PAN Biotech, Aidenbach), 400 μg/ml G418 (AppliChem, Darmstadt) and 0.3 μg/ml tetracycline. Cells were subcultured once a week in a 1:5 ratio, but were usually not passaged more than ten times. For the assay 60,000 cells were seeded in maintenance medium without any tetracycline into each well of a 96-well plate and treated with serial half-log dilutions of test compound. To minimize edge effects the outer 36 wells of the plate were not used but were filled with assay medium. On each assay plate six wells for the virus control (untreated HepAD38 cells) and six wells for the cell control (HepAD38 cells treated with 0.3 μg/ml tetracycline) were allocated, respectively. In addition, one plate set with reference inhibitors like BAY 41-4109, entecavir, and lamivudine instead of screening compounds were prepared in each experiment. In general, experiments were performed thrice in triplicates. At day 6 HBV DNA from 100 μl filtrated cell culture supernatant (AcroPrep Advance 96 Filter Plate, […] Supor membran, PALL GmbH, Dreieich) was automatically purified on the MagNa Pure LC instrument using the MagNA Pure 96 DNA and Viral NA Small Volume Kit (Roche Diagnostics, Mannheim) according to the instructions of the manufacturer. EC50 values were calculated from relative copy numbers of HBV DNA In brief, 5 μl of the 100 μl eluate containing HBV DNA were subjected to PCR LC480 Probes Master Kit (Roche) together with 1 μM antisense primer […], 0.5 μM sense primer […], 0.3 μM hybprobes […]-FL and LC640-[…]-PH (TIBMolBiol, Berlin) to a final volume of 12.5 μl. The PCR was performed on the Light Cycler 480 real time system (Roche Diagnostics, Mannheim) using the following protocol: Pre-incubation for 1 min at 95° C., amplification: 40 cycles×(10 sec at 95° C., 50 sec at 60° C., 1 sec at 70° C.), cooling for 10 sec at 40° C. Viral load was quantitated against known standards using HBV plasmid DNA of pCH-9/3091 (Nassal et al., 1990, Cell 63: 1357-1363) and the LightCycler 480 SW 1.5 software (Roche Diagnostics, Mannheim) and ECso values were calculated using non-linear regression with GraphPad Prism 6 (GraphPad Software Inc., La Jolla, USA).
# Chain of HBV core protein (C-terminal truncated core protein containing 149 amino acids of the N-terminal assembly domain) (P03146 whole entry, the tested form may be a part): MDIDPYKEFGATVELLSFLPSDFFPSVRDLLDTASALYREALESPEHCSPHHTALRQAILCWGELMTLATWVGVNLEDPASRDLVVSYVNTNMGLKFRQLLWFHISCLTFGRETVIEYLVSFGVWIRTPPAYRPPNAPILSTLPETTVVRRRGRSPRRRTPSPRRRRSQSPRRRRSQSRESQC
Structure (SMILES),CC50 at 6 days [1] [µM],IC50 [2] [µM],EC50 (HBV) [nM]
"CC1Cn2ncc(C(=O)N(C)C3CC3)c2CN1C(=O)c1cc2ccccc2[nH]1 (racemic) [Example 2, N-cyclopropyl-5-(1H-indole-2-carbonyl)-N,6-dimethyl-4H,5H,6H,7H-pyrazolo[1,5-a]pyrazine-3-carboxamide]",> 10,< 5,< 1000
"CC1Cn2ncc(C(=O)NC3(COC(F)F)CC3)c2CN1C(=O)c1cc2ccccc2[nH]1 (racemic) [Example 130, N-{1-[(difluoromethoxy)methyl]cyclopropyl}-5-(1H-indole-2-carbonyl)-6-methyl-4H,5H,6H,7H-pyrazolo[1,5-a]pyrazine-3-carboxamide]",> 10,< 5,< 1000
"COCC1(N(C)C(=O)c2cnn3c2CN(C(=O)c2cc4ccccc4[nH]2)C(C)C3)CC1 (single isomer, unassigned) [Example 17, 5-(1H-indole-2-carbonyl)-N-[1-(methoxymethyl)cyclopropyl]-N,6-dimethyl-4H,5H,6H,7H-pyrazolo[1,5-a]pyrazine-3-carboxamide]",> 10,5 to 10,< 1000
"CC1Cn2ncc(C(=O)N(C)C3CC3)c2CN1C(=O)c1cc2ccccc2[nH]1 (single isomer, unassigned) [Example 18, N-cyclopropyl-5-(1H-indole-2-carbonyl)-N,6-dimethyl-4H,5H,6H,7H-pyrazolo[1,5-a]pyrazine-3-carboxamide]",> 10,< 100,1000 to 10000
"CC1Cn2ncc(C(=O)NC3(COC(F)F)CC3)c2CN1C(=O)c1cc2ccccc2[nH]1 (single isomer, unassigned) [Example 131, N-{1-[(difluoromethoxy)methyl]cyclopropyl}-5-(1H-indole-2-carbonyl)-6-methyl-4H,5H,6H,7H-pyrazolo[1,5-a]pyrazine-3-carboxamide]",> 10,< 5,< 1000
"COCC1(N(C)C(=O)c2cnn3c2CN(C(=O)c2cc4ccccc4[nH]2)C(C)C3)CC1 (stereo not drawn) [Example 1, 5-(1H-indole-2-carbonyl)-N-[1-(methoxymethyl)cyclopropyl]-N,6-dimethyl-4H,5H,6H,7H-pyrazolo[1,5-a]pyrazine-3-carboxamide]",> 10,< 5,< 1000
"O=C(c1cc2c(F)c(F)ccc2[nH]1)N1CCn2ncc(C3CCC3)c2C1 [Example 3, 2-{3-cyclobutyl-4H,5H,6H,7H-pyrazolo[1,5-a]pyrazine-5-carbonyl}-4,5-difluoro-1H-indole]",> 10,< 5,< 1000
"Cc1cc(F)cc2[nH]c(C(=O)N3CCn4ncc(C5CCC5)c4C3)cc12 [Example 4, 2-{3-cyclobutyl-4H,5H,6H,7H-pyrazolo[1,5-a]pyrazine-5-carbonyl}-6-fluoro-4-methyl-1H-indole]",> 10,< 5,< 1000
"O=C(c1cc2c(F)cc(F)cc2[nH]1)N1CCn2ncc(C3CCC3)c2C1 [Example 5, 2-{3-cyclobutyl-4H,5H,6H,7H-pyrazolo[1,5-a]pyrazine-5-carbonyl}-4,6-difluoro-1H-indole]",> 10,< 5,< 1000
"O=C(c1cc2ccccc2[nH]1)N1CCn2ncc(C3CCC3)c2C1 [Example 6, 2-{3-cyclobutyl-4H,5H,6H,7H-pyrazolo[1,5-a]pyrazine-5-carbonyl}-1H-indole]",> 10,< 5,< 1000
"COCC1(N(C)C(=O)c2cnn3c2CN(C(=O)c2cc4c(Cl)cccc4[nH]2)CC3)CC1 [Example 7, 5-(4-chloro-1H-indole-2-carbonyl)-N-[1-(methoxymethyl)cyclopropyl]-N-methyl-4H,5H,6H,7H-pyrazolo[1,5-a]pyrazine-3-carboxamide]",> 10,< 5,< 1000
"COCC1(N(C)C(=O)c2cnn3c2CN(C(=O)c2cc4c(F)cc(F)cc4[nH]2)CC3)CC1 [Example 8, 5-(4,6-difluoro-1H-indole-2-carbonyl)-N-[1-(methoxymethyl)cyclopropyl]-N-methyl-4H,5H,6H,7H-pyrazolo[1,5-a]pyrazine-3-carboxamide]",> 10,< 5,< 1000
"O=C(c1cc2ccccc2[nH]1)N1CCn2ncc(S(=O)(=O)N3CCC(F)(F)CC3)c2C1 [Example 34, 2-{3-[(4,4-difluoropiperidin-1-yl)sulfonyl]-4H,5H,6H,7H-pyrazolo[1,5-a]pyrazine-5-carbonyl}-1H-indole]",> 10,–,< 1000
"O=C(c1cc2c(Cl)cccc2[nH]1)N1CCn2ncc(C(=O)N3CCC(F)(F)C3)c2C1 [Example 99, 4-chloro-2-[3-(3,3-difluoropyrrolidine-1-carbonyl)-4H,5H,6H,7H-pyrazolo[1,5-a]pyrazine-5-carbonyl]-1H-indole]",> 10,–,< 1000
"O=C(c1cc2c(Cl)cc(F)cc2[nH]1)N1CCn2ncc(C(=O)N3CCC(F)(F)C3)c2C1 [Example 140, 4-chloro-2-[3-(3,3-difluoropyrrolidine-1-carbonyl)-4H,5H,6H,7H-pyrazolo[1,5-a]pyrazine-5-carbonyl]-6-fluoro-1H-indole]",> 10,–,< 1000
